One may read the inhibition as the relative decrease from the control value, in per cent. Broadly, the IC50 is the midpoint of a concentration-inhibition curve. Low readings indicate higher potency, high ones lower potency.

Assay [1] deals with T1, human cloned dopamine D4.2 receptors (Homo sapiens, UniProt P21917, DEL265-296).
T1 construct: expressed in transfected cells; host or cells: CHO cells
T1 sequence (P21917 with tags, fused parts or gaps DEL265-296): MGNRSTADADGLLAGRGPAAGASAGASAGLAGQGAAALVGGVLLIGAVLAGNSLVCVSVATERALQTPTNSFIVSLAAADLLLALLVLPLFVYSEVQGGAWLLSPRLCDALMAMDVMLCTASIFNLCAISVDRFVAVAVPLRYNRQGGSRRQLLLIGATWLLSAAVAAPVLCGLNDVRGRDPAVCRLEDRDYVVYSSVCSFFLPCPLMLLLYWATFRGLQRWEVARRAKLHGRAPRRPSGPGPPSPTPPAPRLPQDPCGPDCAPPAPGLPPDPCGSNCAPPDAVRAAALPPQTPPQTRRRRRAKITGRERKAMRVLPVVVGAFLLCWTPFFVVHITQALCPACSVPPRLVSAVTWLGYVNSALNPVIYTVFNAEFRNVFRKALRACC
In words: Inhibition of the binding of 3H-YM-09151-2 to human dopamine D4 receptors. As to conditions: human cloned dopamine D4.2 receptors in CHO-cells; for Inhibition of 3H-YM-09151-2 binding % inhibition at 50 nM / inhibition at 0.05 µM: at 50 nM. The method, then: The compounds of the invention have also been tested for their affinity to dopamine D4 receptors in the following test.
Inhibition of the Binding of ^3H-YM-09151-2 to Human Dopamine D4 Receptors
By this method the inhibition by drugs of the binding of [^3H]YM-09151-2 (0.06 nM) to membranes of human cloned dopamine D4.2 receptors expressed in CHO-cells is determined in vitro. Method modified from NEN Life Science Products, Inc., technical data certificate PC2533-10/96.

The target of assay [2] is T2, cloned human 5-HT1A receptors (Homo sapiens, UniProt P08908).
T2 construct: expressed in transfected cells; host or cells: HeLa cells (HA7)
T2 sequence (P08908 1-422): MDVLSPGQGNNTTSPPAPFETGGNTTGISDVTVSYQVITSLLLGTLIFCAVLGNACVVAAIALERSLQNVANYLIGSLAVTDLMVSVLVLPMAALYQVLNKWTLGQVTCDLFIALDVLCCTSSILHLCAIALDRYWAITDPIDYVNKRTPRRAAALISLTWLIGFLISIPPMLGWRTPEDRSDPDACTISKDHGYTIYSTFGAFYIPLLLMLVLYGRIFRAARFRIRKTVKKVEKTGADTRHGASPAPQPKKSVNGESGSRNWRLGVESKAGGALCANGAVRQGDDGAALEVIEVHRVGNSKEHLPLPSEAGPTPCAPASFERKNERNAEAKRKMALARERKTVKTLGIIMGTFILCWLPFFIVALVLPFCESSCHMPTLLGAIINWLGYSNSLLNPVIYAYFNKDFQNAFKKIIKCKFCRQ
In words: Inhibition of 3H-5-CT binding to human 5-HT1A receptors. The following applies: cloned human 5-HT1A receptors in HeLa cells (HA7); for Inhibition of 3H-5-CT Binding % inhibition at 100 nM / inhibition at 0.1 µM: at 100 nM. The method, then:
The affinity of the compounds of the invention to 5-HT1A receptors was determined by measuring the inhibition of binding of a radioactive ligand at 5-HT1A receptors as described in the following test:
Inhibition of ^3H-5-CT Binding to Human 5-HT1A Receptors
By this method the inhibition by drugs of the binding of the 5-HT1A agonist ^3H-5-carboxamido tryptamine (3H-5-CT) to cloned human 5-HT1A receptors stably expressed in transfected HeLa cells (HA7) (Fargin, A. et al, J. Biol. Chem., 1989, 264, 14848) is determined in vitro. The assay was performed as a modification of the method described by Harrington, M. A. et at, J. Pharmacol. Exp. Ther., 1994, 268, 1098. Human 5-HT1A receptors (40 μg of cell homogenate) were incubated for 15 minutes at 37° C. in 50 mM Tris buffer at pH 7.7 in the presence of ^3H-5-CT. Non-specific binding was determined by including 10 μM of metergoline. The reaction was terminated by rapid filtration through Unifilter GF/B filters on a Tomtec Cell Harvester. Filters were counted in a Packard Top Counter.

On to `Clc1ccc(Cl)c(SCCN2CCN(c3cccc4c3OCCO4)CC2)c1` [Compound 7at, 1-[2-(2,5-Dichloro-phenylsulfanyl)-ethyl]-4-(2,3-dihydro-henzo[1,4]dioxin-5-yl)-piperazine], for which the “Inhibition of 3H-YM-09151-2 binding % inhibition at 50 nM” value in assay [1] was found to be 92%. Also, the “Inhibition of 3H-5-CT Binding % inhibition at 100 nM” value in assay [2] is 88%.

For `Fc1ccccc1SCCCCN1CCN(c2cccc3c2OCCO3)CC1` [Compound 7bf, 1-(2,3-Dihydro-benzo[1,4]dioxin-5-yl)-4-[4-(2-fluoro-phenylsulfanyl)-butyl]-piperazine], the inhibition at 0.05 µM in assay [1] came to 91%. In addition, the inhibition at 0.1 µM in assay [2] is 101%.

Consider `N#Cc1ccc(N2CCN(CCCOc3ccc(F)cc3Cl)CC2)c2c1OCCO2` [Compound 5ck, 8-{4-[3-(2-chloro-4-fluorophenoxy)-propyl]-piperazin-1-yl}-2,3-dihydro-benzo[1,4]dioxine-5-carbonitrile], for which the inhibition at 0.05 µM in assay [1] was 77%. The same compound had an IC50 in assay [2] of 180 nM.

For the compound `Fc1ccc(OCCCCN2CCN(c3cccc4ccsc34)CC2)c(Br)c1` [Compound 5bf, 1-Benzo[b]thiophen-7-yl-4-[4-(2-bromo-4-fluoro-phenoxy)-butyl]-piperazine], the values for the IC50 in assay [1] and in assay [2] were 3.1 nM and 35 nM, respectively.

With `CCc1ccccc1SCCCN1CCN(c2cccc3c2OCCO3)CC1` [Compound 7ax, 1-(2,3-Dihydro-benzo[1,4]dioxin-5-yl)-4-[3-(2-ethyl-phenylsulfanyl)-propyl]-piperazine], the inhibition at 0.05 µM in assay [1] was 100%. Moreover, in assay [2], the IC50 was 9.2 nM.

Turning to `Clc1cccc(Cl)c1OCCCN1CCN(c2cccc3c2OCCO3)CC1` [Compound 1b, 1-[3-(2,6-Dichloro-phenoxy)-propyl]-4-(2,3-dihydro-benzo[1,4]dioxin-5-yl)-piperazine], the values for the 50% inhibitory concentration (IC50) in assay [1] and in assay [2] were 5.9 nM and 1.1 nM, respectively.

On to `N#Cc1cc(Br)c(OCCCN2CCN(c3cccc4c3OCCO4)CC2)c(Br)c1` [Compound 5bx, 3,5-Dibromo-4-{3-[4-(2,3-dihydro-benzo[1,4]dioxin-5-yl)-piperazin-1-yl]-propoxy}-benzonitrile], for which the IC50 turned out to be 19 nM in assay [1] and 2.2 nM in assay [2].

Regarding `CC1(C)COc2c(N3CCN(CCCOc4c(Cl)cc(F)cc4Cl)CC3)cc(Cl)cc21` [Compound 5bl, 1-(5-Chloro-3,3-dimethyl-2,3-dihydro-benzofuran-7-yl)-4-[3-(2,6-dichloro-4-fluoro-phenoxy)-propyl]-piperazine], the IC50 in assay [1] turned out to be 26 nM; in assay [2], 88 nM.

For the compound `C=CCc1cccc(Cl)c1OCCN1CCN(c2cccc3c2OCCO3)CC1` [Compound 7ai, 1-[2-(2-Allyl-6-chloro-phenoxy)-ethyl]-4-(2,3-dihydro-benzo[1,4]dioxin-5-yl)-piperazine], in assay [1], the inhibition at 0.05 µM turned out to be 82%. Further, the inhibition at 0.1 µM in assay [2] was determined as 90%.

Consider `Clc1ccc(SCCCN2CCN(c3cccc4c3OCCO4)CC2)cc1Cl` [Compound 7am, 1-[3-(3,4-Dichloro-phenylsulfanyl)-propyl]-4-(2,3-dihydro-benzo[1,4]dioxin-5-yl)-piperazine], for which the inhibition at 0.05 µM in assay [1] was found to be 99%. Besides, the inhibition at 0.1 µM in assay [2] amounted to 100%.

As to `COc1c(Cl)cccc1SCCCCN1CCN(c2cccc3c2OCCO3)CC1` [Compound 5ag, 1-[4-(3-Chloro-2-methoxy-phenylsulfanyl)-butyl]-4-(2,3-dihydro-henzo[1,4]dioxin-5-yl)-piperazine], the IC50 in assay [1] came to 3.1 nM; in assay [2] it was 7.4 nM.

With `CCc1ccccc1SCCN1CCN(c2cccc3c2OCCO3)CC1` [Compound 7as, 1-(2,3-Dihydro-benzo[1,4]dioxin-5-yl)-4-[2-(2-ethyl-phenylsulfanyl)-ethyl]-piperazine], the inhibition at 0.05 µM in assay [1] came out at 93%. Besides, in assay [2], the inhibition at 0.1 µM is 80%.

Consider `Fc1cc(F)c(OCCCN2CCN(c3cccc4ccsc34)CC2)c(Br)c1` [Compound 5bt, 1-Benzo[h]thiophen-7-yl-4-[3-(2-bromo-4,6-difluoro-phenoxy)-propyl]-piperazine], for which the 50% inhibitory concentration (IC50) in assay [1] turned out to be 6.3 nM; in assay [2], 8.6 nM.

Turning to `Clc1cccc(Cl)c1SCCCCN1CCN(c2cccc3c2OCCO3)CC1` [Compound 5ab, 1-[4-(2,6-Dichloro-phenylsulfanyl)-butyl]-4-(2,3-dihydro-benzo[1,4]dioxin-5-yl)-piperazine], the values for the IC50 in assay [1] and in assay [2] were 2.1 nM and 1.9 nM, respectively.

In the case of `Clc1ccc(SCCCCN2CCN(c3cccc4c3OCCO4)CC2)c(Cl)c1` [Compound 7ar, 1-[4-(2,4-Dichloro-phenylsulfanyl)-butyl]-4-(2,3-dihydro-benzo[1,4]dioxin-5-yl)-piperazine], the inhibition at 0.05 µM in assay [1] stood at 99%. This compound also registered an IC50 in assay [2] of 3.8 nM.

Compound `Fc1ccc(SCCCN2CCN(c3cccc4ccsc34)CC2)c(Cl)c1` [Compound 2e, 1-Benzo[b]thiophen-7-yl-4-[3-(2-chloro-4-fluoro-phenylsulfanyl)-propyl]-piperazine] returned an IC50 in assay [1] of 5.4 nM.

On to `Cc1ccccc1SCCN1CCN(c2cccc3c2OCCO3)CC1` [Compound 7bo, 1-(2,3-Dihydro-benzo[1,4]dioxin-5-yl)-4-(2-o-tolylsulfanyl-ethyl)-piperazine], for which the inhibition at 0.05 µM in assay [1] turned out to be 102%. Moreover, the inhibition at 0.1 µM in assay [2] was found to be 91%.

As to `Clc1cccc(SCCN2CCN(c3cccc4c3OCCO4)CC2)c1` [Compound 7au, 1-[2-(3-Chloro-phenylsulfanyl)-ethyl]-4-(2,3-dihydro-benzo[1,4]dioxin-5-yl)-piperazine], in assay [1], the inhibition at 0.05 µM is 87%. Further, the inhibition at 0.1 µM in assay [2] was determined as 84%.

Consider `FC(F)(F)c1ccccc1OCCN1CCN(c2cccc3c2OCCO3)CC1` [Compound 7ae, 1-(2,3-Dihydro-benzo[1,4]dioxin-5-yl)-4-[2-(2-trifluoromethyl-phenoxy)-ethyl]-piperazine], for which, in assay [1], the inhibition at 0.05 µM amounted to 75%. The inhibition at 0.1 µM in assay [2] was found to be 82%.

Take `Clc1ccccc1SCCCCN1CCN(c2cccc3c2OCCO3)CC1` [Compound 7be, 1-[4-(2-Chloro-phenylsulfanyl)-butyl]-4-(2,3-dihydro-benzo[1,4]dioxin-5-yl)-piperazine]: in assay [1], the inhibition at 0.05 µM turned out to be 102%. Also, the inhibition at 0.1 µM in assay [2] stood at 102%.

For `FC(F)(F)c1ccccc1SCCN1CCN(c2cccc3c2OCCO3)CC1` [Compound 7af, 1-(2,3-Dihydro-benzo[1,4]dioxin-5-yl)-4-[2-(2-trifluoromethyl-phenylsulfanyl)-ethyl]-piperazine], in assay [1], the inhibition at 0.05 µM worked out at 91%. The inhibition at 0.1 µM in assay [2] amounted to 99%.

Turning to `Clc1ccc(SCCCCN2CCN(c3cccc4c3OCCO4)CC2)cc1Cl` [Compound 7an, 1-[4-(3,4-Dichloro-phenylsulfanyl)-butyl]-4-(2,3-dihydro-henzo[1,4]dioxin-5-yl)-piperazine], the “Inhibition of 3H-YM-09151-2 binding % inhibition at 50 nM” value in assay [1] amounted to 91%. Further, in assay [2], the “Inhibition of 3H-5-CT Binding % inhibition at 100 nM” value came out at 100%.

In turn, `Fc1ccc(SCCCN2CCN(c3cccc4ccsc34)CC2)c(Cl)c1` [Compound 5ai, 1-Benzo[b]thiophen-7-yl-4-[3-(2-chloro-4-fluoro-phenylsulfanyl)-propyl]-piperazine] had a concentration for half-maximal inhibition (IC50) in assay [1] of 2.9 nM. That is a single-digit nanomolar value.

In assay [1], `Fc1ccc(SCCCN2CCN(c3cccc4ccsc34)CC2)c(Cl)c1` [Compound 5ad, 1-Benzo[b]thiophen-7-yl-4-[3-(2-chloro-4-fluoro-phenylsulfanyl)-propyl]-piperazine] yielded an IC50 of 6.6 nM.

Source of the values: US20030050306A1, “Novel heteroaryl derivatives, their preparation and use” (H. Lundbeck A/S, priority 1999, published 2003).
